Measured values: patent US20260317344A1, “EGFR INHIBITORS FOR TREATING DISEASE” (BLOSSOMHILL THERAPEUTICS, INC., priority 2023, published 2026)

How the values were obtained:
[1] = test system: NCI-H1975 cells; test: 5-Day CellTiter Glo (CTG) cell proliferation assay, NCI-H1975; type: cell-based; conditions: Homo sapiens; NCI-H1975 cells (L858R/T790M EGFR), 5-day CTG proliferation, 120 hours; read-out: H1975 IC50
In short: (§1)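 Proliferation of EGFR-driven NSCLC cells was scored as CellTiter-Glo 2.0 luminescence after a 5-day (120 h) incubation with compounds in 9 doses. IC50 values came from the dose-response curves.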

[2] = target: EGFR (L858R/T790M/C797S) (Homo sapiens, UniProt P00533, C797S/L858R/T790M); test: HotSpot radiometric kinase assay, inhibition of EGFR L858R/T790M/C797S mutant; type: biochemical; conditions: 33P ATP, room temperature, 120 m
Sequence of EGFR (L858R/T790M/C797S) (P00533 25-1210 T790M/C797S/L858R): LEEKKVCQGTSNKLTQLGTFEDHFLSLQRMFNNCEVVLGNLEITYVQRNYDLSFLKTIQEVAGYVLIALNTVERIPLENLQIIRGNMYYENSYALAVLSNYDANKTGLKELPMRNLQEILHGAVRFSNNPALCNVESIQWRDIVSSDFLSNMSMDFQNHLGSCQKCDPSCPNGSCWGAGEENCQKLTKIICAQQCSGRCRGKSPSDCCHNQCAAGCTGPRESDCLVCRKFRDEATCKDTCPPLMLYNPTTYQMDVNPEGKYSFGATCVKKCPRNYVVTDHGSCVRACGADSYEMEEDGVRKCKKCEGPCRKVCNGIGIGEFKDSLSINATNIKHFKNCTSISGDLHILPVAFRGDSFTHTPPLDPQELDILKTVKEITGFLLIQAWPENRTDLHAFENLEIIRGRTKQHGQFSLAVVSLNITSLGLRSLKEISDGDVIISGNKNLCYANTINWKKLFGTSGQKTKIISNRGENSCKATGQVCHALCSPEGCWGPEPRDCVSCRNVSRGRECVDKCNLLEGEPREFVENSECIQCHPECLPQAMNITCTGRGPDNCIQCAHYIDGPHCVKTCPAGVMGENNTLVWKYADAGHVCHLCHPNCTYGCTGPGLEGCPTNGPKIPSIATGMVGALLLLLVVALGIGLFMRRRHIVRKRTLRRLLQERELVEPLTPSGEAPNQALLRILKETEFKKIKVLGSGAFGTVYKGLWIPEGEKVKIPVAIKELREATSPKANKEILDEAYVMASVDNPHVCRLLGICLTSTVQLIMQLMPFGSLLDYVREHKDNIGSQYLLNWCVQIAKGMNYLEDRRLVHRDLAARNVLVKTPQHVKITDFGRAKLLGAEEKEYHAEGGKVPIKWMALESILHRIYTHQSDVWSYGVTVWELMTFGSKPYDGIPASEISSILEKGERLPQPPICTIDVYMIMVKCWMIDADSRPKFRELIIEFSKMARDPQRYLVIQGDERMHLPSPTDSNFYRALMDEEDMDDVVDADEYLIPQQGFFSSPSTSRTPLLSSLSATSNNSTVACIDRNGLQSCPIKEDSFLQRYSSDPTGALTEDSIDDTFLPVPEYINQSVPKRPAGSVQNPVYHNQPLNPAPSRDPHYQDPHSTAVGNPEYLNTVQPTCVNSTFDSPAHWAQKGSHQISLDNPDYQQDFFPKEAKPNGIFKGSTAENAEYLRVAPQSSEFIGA
In short: (§2)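 Radiometric filter-binding format: ATP plus 33P-ATP ([…]) was added about 20 min after compound to kinase and substrate in HEPES pH 7.5 buffer with Mg2+, EGTA, Brij35, BSA, vanadate, DTT and 1% DMSO. After 120 min at room temperature, reactions were spotted on P81 paper and washed in phosphoric acid; IC50 values fitted.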

[3] = target: T1, pEGFR, PC-9 cells (d746-750 EGFR) (Homo sapiens, UniProt P00533, DEL746-750); test: Cellular EGFR phosphorylation assay (LANCE Ultra TR-FRET) in PC-9 cells; type: cell-based; conditions: 4 hours at 37° C., read-out: PC-9 pEGFR IC50
T1 construct: pEGFR (Tyr1068) TR-FRET
T1 sequence (P00533 with tags, fused parts or gaps DEL746-750): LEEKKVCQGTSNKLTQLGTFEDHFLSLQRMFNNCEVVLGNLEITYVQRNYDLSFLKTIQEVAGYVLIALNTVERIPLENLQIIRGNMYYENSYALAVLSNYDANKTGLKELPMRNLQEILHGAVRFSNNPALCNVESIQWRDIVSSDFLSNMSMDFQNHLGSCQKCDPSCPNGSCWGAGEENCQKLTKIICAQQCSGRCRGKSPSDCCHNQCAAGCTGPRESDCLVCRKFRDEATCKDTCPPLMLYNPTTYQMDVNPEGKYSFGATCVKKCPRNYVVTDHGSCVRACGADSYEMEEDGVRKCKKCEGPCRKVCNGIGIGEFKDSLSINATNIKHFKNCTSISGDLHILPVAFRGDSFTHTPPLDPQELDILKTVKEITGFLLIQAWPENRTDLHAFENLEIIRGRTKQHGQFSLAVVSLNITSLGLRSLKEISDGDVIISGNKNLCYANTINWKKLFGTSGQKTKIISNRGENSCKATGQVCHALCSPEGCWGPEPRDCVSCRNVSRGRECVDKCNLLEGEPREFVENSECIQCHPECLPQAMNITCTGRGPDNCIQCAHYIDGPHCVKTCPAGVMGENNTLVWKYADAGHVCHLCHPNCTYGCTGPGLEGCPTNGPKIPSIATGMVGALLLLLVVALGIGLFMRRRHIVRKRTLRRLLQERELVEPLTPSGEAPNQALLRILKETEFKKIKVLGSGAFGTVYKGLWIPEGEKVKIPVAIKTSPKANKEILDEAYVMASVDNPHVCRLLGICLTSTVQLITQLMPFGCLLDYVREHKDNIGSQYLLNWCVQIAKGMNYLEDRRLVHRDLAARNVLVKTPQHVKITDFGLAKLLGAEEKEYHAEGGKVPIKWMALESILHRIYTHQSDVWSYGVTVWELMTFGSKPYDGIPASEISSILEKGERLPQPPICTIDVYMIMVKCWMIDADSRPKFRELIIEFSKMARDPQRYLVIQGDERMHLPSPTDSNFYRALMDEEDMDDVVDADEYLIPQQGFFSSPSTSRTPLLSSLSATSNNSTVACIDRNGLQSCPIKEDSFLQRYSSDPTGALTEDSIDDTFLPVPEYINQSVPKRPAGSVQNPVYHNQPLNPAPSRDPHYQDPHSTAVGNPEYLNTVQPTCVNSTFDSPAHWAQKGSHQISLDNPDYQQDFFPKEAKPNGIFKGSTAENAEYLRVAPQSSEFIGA
In short: (§3)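 Phospho-EGFR (Tyr1068) measured by TR-FRET in lysates after 4 h compound exposure at 37° C (9 doses, 3-fold steps). A431 cells, seeded at 30 thousand per well, received 40 ng/mL EGF for the last 10 min; PC-9 and NCI-H1975 seeded at 50 thousand per well, unstimulated. IC50 values reported.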

[4] = target: EGFR WT (Homo sapiens, UniProt P00533); test: HotSpot radiometric kinase assay, inhibition of EGFR WT; type: biochemical; conditions: 33P ATP, room temperature, 120 m
Experimental: (§4) Biochemical Assays for inhibition of wild-type and mutant EGFRs
(§5) Briefly, specific kinase/substrate pairs along with required cofactors were prepared in reaction buffer; 20 mM HEPES pH 7.5, 10 mM […], 1 mM EGTA, 0.02% Brij35, 0.02 mg/ml BSA, 0.1 mM Na3VO4, 2 mM DTT, 1% DMSO. Compounds were delivered into the reaction, followed ~20 minutes later by addition of a mixture of ATP (Sigma, St. Louis MO) and ^33P ATP (Perkin Elmer, Waltham MA) to a final concentration of […]. Reactions were carried out at room temperature for 120 m, followed by spotting of the reactions onto P81 ion exchange filter paper (Whatman Inc., Piscataway, NJ). Unbound phosphate was removed by extensive washing of filters in 0.75% phosphoric acid. […] IC50 values and curve fits were obtained using Prism (GraphPad Software).

[5] = test system: BaF3 cells with engineered EGFR L858R/C797S; test: 3-Day CellTiter Glo (CTG) cell proliferation assay, BaF3 EGFR L858R/C797S; type: cell-based; conditions: Mus musculus, 3-day CTG proliferation, 72 hours
In short: (§6)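 Luminescent ATP read-out (CellTiter-Glo 2.0) after 72 h compound exposure gives IC50 values. BaF3 transgenic cells, one thousand per well, received a nine-dose series and were kept at 37 °C under 5% CO2.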

[6] = target: EGFR (D746-750) (Homo sapiens, UniProt P00533, DEL746-750); test: HotSpot radiometric kinase assay, inhibition of EGFR 746-750 mutant; type: biochemical; conditions: 33P ATP, room temperature, 120 m
Sequence of EGFR (D746-750) (P00533 with tags, fused parts or gaps DEL746-750): as above
In short: as §2

[7] = test system: PC-9 cells; test: 5-Day CellTiter Glo (CTG) cell proliferation assay, PC-9; type: cell-based; conditions: Homo sapiens; PC-9 cells (d746-750 EGFR), 5-day CTG proliferation, 120 hours; read-out: PC-9 IC50
In short: as §1

[8] = target: EGFR (L858R) (Homo sapiens, UniProt P00533, L858R); test: HotSpot radiometric kinase assay, inhibition of EGFR L858R mutant; type: biochemical; conditions: 33P ATP, room temperature, 120 m
Experimental: as §4, §5

[9] = target: T2, pEGFR, A431 cells (wildtype EGFR) (Homo sapiens, UniProt P00533); test: Cellular EGFR phosphorylation assay (LANCE Ultra TR-FRET) in A431 cells; type: cell-based; conditions: 4 hours at 37° C., 40 ng/mL EGF for the final 10 minutes, read-out: A431 pEGFR IC50
T2 construct: pEGFR (Tyr1068) TR-FRET
In short: as §3

[10] = target: EGFR (D746-750/C797S) (Homo sapiens, UniProt P00533, C797S/DEL746-750); test: HotSpot radiometric kinase assay, inhibition of EGFR 746-750/C797S mutant; type: biochemical; conditions: 33P ATP, room temperature, 120 m
In short: as §2

[11] = test system: HCC827 cells; test: 5-Day CellTiter Glo (CTG) cell proliferation assay, HCC827; type: cell-based; conditions: Homo sapiens; HCC827 cells (d746-750 EGFR), 5-day CTG proliferation, 120 hours; read-out: HCC827 IC50
In short: as §1

[12] = test system: BaF3 cells with engineered EGFR L858R/T790M/C797S; test: 3-Day CellTiter Glo (CTG) cell proliferation assay, BaF3 EGFR L858R/T790M/C797S; type: cell-based; conditions: Mus musculus, 3-day CTG proliferation, 72 hours
In short: as §6

[13] = target: EGFR (D770_N771insNPG) (Homo sapiens, UniProt P00533, INS770NPG); test: HotSpot radiometric kinase assay, inhibition of EGFR (D770_N771insNPG) mutant; type: biochemical; conditions: 33P ATP, room temperature, 120 m
Sequence of EGFR (D770_N771insNPG) (P00533 with tags, fused parts or gaps INS770NPG limits assumed): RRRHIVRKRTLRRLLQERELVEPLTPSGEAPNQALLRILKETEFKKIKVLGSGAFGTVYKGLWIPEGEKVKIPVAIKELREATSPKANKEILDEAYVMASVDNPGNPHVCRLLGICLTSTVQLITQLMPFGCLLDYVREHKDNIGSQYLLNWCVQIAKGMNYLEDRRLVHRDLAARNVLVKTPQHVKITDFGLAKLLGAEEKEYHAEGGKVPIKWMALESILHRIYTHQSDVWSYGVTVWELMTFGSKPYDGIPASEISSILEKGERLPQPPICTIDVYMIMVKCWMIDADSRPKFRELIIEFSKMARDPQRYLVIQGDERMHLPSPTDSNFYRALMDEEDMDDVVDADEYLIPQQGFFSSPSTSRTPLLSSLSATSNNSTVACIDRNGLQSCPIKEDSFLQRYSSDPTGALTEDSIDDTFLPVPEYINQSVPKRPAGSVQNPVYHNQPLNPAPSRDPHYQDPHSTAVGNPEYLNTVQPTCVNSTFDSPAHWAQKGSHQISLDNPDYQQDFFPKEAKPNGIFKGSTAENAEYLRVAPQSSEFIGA
In short: as §2

[14] = test system: BaF3 cells with engineered EGFR d746-750/T790M; test: 3-Day CellTiter Glo (CTG) cell proliferation assay, BaF3 EGFR d746-750/T790M; type: cell-based; conditions: Mus musculus; BaF3 EGFR d746-750/T790M cells, 3-day CTG proliferation, 72 hours
In short: as §6

[15] = target: T3, pEGFR, NCI-H1975 cells (L858R/T790M EGFR) (Homo sapiens, UniProt P00533, L858R/T790M); test: Cellular EGFR phosphorylation assay (LANCE Ultra TR-FRET) in NCI-H1975 cells; type: cell-based; conditions: 4 hours at 37° C., read-out: H1975 pEGFR IC50
T3 construct: pEGFR (Tyr1068) TR-FRET
In short: as §3

[16] = target: EGFR (L858R/T790M) (Homo sapiens, UniProt P00533, L858R/T790M); test: HotSpot radiometric kinase assay, inhibition of EGFR L858R/T790M mutant; type: biochemical; conditions: 33P ATP, room temperature, 120 m
Experimental: as §4, §5

Compound	IC50 [1] [nM]	IC50 [2] [nM]	IC50 [3] [nM]	IC50 [4] [nM]	IC50 [5] [nM]	IC50 [6] [nM]	IC50 [7] [nM]	IC50 [8] [nM]	IC50 [9] [nM]	IC50 [10] [nM]	IC50 [11] [nM]	IC50 [12] [nM]	IC50 [13] [nM]	IC50 [14] [nM]	IC50 [15] [nM]	IC50 [16] [nM]
CCOc1nn([C@@H](C)CO)c2c1/C=C/c1n[nH]c3cnc(cc13)-c1c(C)nn(C)c1OC[C@H](C)N(CC)C2 [Ex. 25, (2S)-2-[(11S,17E)-16-ethoxy-12-ethyl-6,8,11-trimethyl-2,8,10,11,12,13-hexahydro-14H-5,3-(azenometheno)tripyrazolo[3,4-f:3′,4′-j:4″,3″-n][1,4]oxazacyclopentadecin-14-yl]propan-1-ol]	10.3	0.51	1.24	0.55	0.13	0.51	2.97	1.88	17.9	1.02	0.46	0.85	1.23	0.63	1.93	1.39
CCOc1nn(CCO)c2c1/C=C/c1n[nH]c3cnc(cc13)-c1c(C)nn(C)c1O[C@H](C)CN(CC)C2 [Ex. 17, 2-[(10R,17E)-16-ethoxy-12-ethyl-6,8,10-trimethyl-2,8,10,11,12,13-hexahydro-14H-5,3-(azenometheno)tripyrazolo[3,4-f:3′,4′-j:4″,3″-n][1,4]oxazacyclopentadecin-14-yl]ethan-1-ol]	17.5	2.37	1.85	0.36	0.22	0.31	2.01	0.52	14.3	1	0.37	1.14	0.59	0.34	2.63	0.97
CCN1Cc2c(c(C)nn2CCO)/C=C/c2n[nH]c3cnc(cc23)-c2c(C)nn(C)c2O[C@H](C)C1 [Ex. 14, 2-[(10R,17E)-12-ethyl-6,8,10,16-tetramethyl-2,8,10,11,12,13-hexahydro-14H-5,3-(azenometheno)tripyrazolo[3,4-f:3′,4′-j:4″,3″-n][1,4]oxazacyclopentadecin-14-yl]ethan-1-ol]	110	0.22	11.8	0.08	1.24	0.47	54.5	0.25	44.7	0.2	2.87	5.24	0.15	22.3	7.52	0.23
CCOc1nn(CCO)c2c1/C=C/c1n[nH]c3cnc(cc13)-c1c(C)nn(C)c1O[C@@H](C)CN(C(C)C)C2 [Ex. 8, 2-[(10S,17E)-16-ethoxy-6,8,10-trimethyl-12-(propan-2-yl)-2,8,10,11,12,13-hexahydro-14H-5,3-(azenometheno)tripyrazolo[3,4-f:3′,4′-j:4″,3″-n][1,4]oxazacyclopentadecin-14-yl]ethan-1-ol]	0.92	0.48	1.05	0.15	0.1	0.55	0.36	0.35	8.1	0.37	0.11	0.81	0.32	0.44	1.54	0.7
